Source: ChEMBL document CHEMBL1201862, “PubChem BioAssay data set” (2004)
Activity calls are given as the source filed them.

Tests used:
[1] = cytotoxicity toward NIH3T3 fibroblasts, dose response, counter-screen, cell-based, ATP luminescence, mouse fibroblasts (AID 2010); type: functional;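 also: cells exposed to compound for about 90 hours before reading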
[2] = test system: Streptococcus sp. 'group A'; test: growth inhibition of control SK(-) GAS strain, dose response, counter-screen for streptokinase expression inhibitor project, luminescence, kanamycin, BacTiterGlo, confirmation (AID 1900); type: functional, organism-based
Streptokinase A = target: T1, Streptokinase A (Streptococcus pyogenes serotype M1, UniProt P10520); test: S. pyogenes streptokinase expression inhibitors, potency, dose response, plasminogen activation absorbance, OD405 (AID 1914); type: functional, Streptococcus pyogenes M1 GAS;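 also: secreted streptokinase activity via plasminogen activation per viability signal from cell pellet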
T1 sequence (P10520 whole entry): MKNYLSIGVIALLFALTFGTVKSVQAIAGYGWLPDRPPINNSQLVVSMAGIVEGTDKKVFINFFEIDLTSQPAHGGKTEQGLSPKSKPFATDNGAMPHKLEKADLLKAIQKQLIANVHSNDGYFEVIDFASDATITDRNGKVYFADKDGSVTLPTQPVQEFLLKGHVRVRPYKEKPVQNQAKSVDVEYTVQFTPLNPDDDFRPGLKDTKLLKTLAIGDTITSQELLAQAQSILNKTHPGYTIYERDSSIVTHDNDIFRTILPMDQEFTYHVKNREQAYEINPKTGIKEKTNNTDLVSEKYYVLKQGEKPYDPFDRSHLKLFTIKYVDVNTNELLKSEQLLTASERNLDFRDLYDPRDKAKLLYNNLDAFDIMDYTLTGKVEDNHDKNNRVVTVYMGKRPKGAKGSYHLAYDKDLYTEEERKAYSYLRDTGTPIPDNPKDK

[3] = target: Small ubiquitin-related modifier 2 (Homo sapiens, UniProt P61956); test: SUMO2–SIM peptide binding inhibitors, dose response, selectivity assay for SUMO1 interaction inhibitor project, biochemical, fluorescence polarization, uHTS hits (AID 624385); type: functional; conditions: read-out: IC50_Mean
[4] = target: T2, Sentrin-specific protease 7 (Homo sapiens, UniProt Q9BQF6); type: functional;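 also: Luminescence-based dose-response confirmation of ultra-high-throughput screening hits, measuring inhibition of SENP7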
T2 sequence (Q9BQF6 whole entry): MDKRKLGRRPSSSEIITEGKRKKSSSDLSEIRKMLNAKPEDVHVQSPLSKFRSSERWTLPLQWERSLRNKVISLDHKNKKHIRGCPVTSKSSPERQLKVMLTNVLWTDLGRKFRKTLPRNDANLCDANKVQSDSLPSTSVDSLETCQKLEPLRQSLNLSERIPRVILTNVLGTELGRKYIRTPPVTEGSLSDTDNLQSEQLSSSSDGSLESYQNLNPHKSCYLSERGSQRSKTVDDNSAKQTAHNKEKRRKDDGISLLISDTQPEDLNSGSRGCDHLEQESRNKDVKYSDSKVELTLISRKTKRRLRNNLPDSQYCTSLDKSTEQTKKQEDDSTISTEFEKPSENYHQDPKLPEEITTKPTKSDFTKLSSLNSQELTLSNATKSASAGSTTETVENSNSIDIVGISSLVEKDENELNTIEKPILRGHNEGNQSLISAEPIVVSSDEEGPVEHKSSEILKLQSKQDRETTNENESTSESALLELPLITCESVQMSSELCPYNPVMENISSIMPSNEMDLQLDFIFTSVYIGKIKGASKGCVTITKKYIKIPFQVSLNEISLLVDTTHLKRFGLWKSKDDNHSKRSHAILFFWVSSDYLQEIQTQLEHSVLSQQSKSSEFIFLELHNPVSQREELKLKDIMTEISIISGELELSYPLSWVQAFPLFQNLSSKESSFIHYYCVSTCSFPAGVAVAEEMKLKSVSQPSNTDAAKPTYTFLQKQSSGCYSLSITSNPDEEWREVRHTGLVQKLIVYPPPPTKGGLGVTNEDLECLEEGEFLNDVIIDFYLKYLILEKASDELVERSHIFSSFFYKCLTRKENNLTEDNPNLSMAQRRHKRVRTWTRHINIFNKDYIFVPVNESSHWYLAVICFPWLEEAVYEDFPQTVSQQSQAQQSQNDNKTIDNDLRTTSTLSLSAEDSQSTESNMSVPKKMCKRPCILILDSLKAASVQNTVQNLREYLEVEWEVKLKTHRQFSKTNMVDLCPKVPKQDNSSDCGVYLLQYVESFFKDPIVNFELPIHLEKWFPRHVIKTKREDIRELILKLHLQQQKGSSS

[5] = target: T3, Replicative DNA helicase DnaB (Mycobacterium tuberculosis, UniProt P9WMR3); test: DnaB intein splicing inhibitors, dose response, biochemical, cell-free fluorescence (AID 449749); type: functional
T3 sequence (P9WMR3 whole entry): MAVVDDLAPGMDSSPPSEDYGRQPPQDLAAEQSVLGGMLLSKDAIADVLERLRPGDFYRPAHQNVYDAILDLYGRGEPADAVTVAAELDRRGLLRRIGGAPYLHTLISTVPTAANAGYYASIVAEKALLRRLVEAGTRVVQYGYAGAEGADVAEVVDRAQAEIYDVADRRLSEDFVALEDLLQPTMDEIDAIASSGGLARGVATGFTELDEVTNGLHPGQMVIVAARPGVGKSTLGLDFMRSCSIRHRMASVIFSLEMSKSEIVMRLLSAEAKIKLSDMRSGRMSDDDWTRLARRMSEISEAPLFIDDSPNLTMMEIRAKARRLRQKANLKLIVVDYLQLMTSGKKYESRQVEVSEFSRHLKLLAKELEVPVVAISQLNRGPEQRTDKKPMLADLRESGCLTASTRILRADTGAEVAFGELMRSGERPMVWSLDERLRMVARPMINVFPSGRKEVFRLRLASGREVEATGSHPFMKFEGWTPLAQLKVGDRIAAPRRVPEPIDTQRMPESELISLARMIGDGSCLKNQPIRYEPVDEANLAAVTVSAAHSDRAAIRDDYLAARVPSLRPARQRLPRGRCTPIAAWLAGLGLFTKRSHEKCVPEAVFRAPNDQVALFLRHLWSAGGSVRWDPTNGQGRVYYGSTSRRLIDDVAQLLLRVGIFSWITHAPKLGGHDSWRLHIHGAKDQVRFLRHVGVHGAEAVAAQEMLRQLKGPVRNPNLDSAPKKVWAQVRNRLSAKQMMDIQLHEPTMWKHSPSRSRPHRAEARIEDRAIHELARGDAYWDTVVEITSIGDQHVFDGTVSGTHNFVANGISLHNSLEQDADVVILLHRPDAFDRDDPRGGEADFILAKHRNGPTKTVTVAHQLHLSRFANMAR

[6] = target: T4, Sentrin-specific protease 8 (Homo sapiens, UniProt Q96LD8); type: functional
T4 sequence (Q96LD8 whole entry): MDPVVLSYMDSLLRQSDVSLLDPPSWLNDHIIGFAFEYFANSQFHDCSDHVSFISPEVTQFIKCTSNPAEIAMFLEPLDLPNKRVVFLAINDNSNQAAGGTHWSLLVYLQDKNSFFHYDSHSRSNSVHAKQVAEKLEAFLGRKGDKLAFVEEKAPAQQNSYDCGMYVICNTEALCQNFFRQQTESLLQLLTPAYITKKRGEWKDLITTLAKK

Sequence of Small ubiquitin-related modifier 2 (P61956 whole entry): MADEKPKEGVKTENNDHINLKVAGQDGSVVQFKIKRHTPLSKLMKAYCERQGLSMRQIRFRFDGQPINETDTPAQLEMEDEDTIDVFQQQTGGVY

In the case of `CCN1/C(=C/c2ccc3cc(C)ccc3[n+]2CC)Sc2cc(C)c(C)cc21`, the EC50 [1] was 5.67 µM (active), the EC50 [2] was 8.22 µM (active) and the EC50 (Streptokinase A) was > 150 µM (not active).

In the case of `Nc1ccc2nc3c(O)nc(S)nc3nc2c1`, the IC50 [3] was 55.2 µM (inactive).

In the case of `COc1ccc(C(=O)Nc2nc3c(s2)Cc2cc(OC)ccc2-3)cc1`, the IC50 [4] was 2.36 µM (active).

In the case of `Cc1oc2c(c1C(=O)c1ccccc1)C(=O)C(=O)c1ccccc1-2`, the IC50 [4] was 9.15 µM (active).

With `O=C1CCCC2=C1C1(O)C(=O)c3ccccc3C1(O)O2` (stereo not given) the AC50 [5] was 5.49 µM (active) and the IC50 [6] was 2.52 µM (active).

In the case of `CSc1ccc(C=NNc2ccc(S(=O)(=O)Nc3ccccc3C(=O)O)cc2[N+](=O)[O-])cc1`, the IC50 [3] was 2.38 µM (active).

In the case of `O=C1C(Cl)=C(NCCN2CCCCC2)C(=O)c2ccccc21`, the AC50 [5] was 14 µM (active) and the EC50 [1] was 0.798 µM (active).

In the case of `COc1cc(NCCCNC(C)C)c2nccc(C)c2c1`, the IC50 [6] was 3.89 µM (active).

With `CC(/C=C1\SC(=S)N(NS(=O)(=O)c2ccccc2)C1=O)=C\c1ccccc1` the EC50 [2] was 1.94 µM (active), the IC50 [4] was 30.7 µM (active) and the EC50 (Streptokinase A) was 21.4 µM (active).
